According to PubChem BioAssay (NCI):
Where “and” joins values, the source holds several entries; their conditions need not be identical. Identical values can stand only once.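 These data come from cells grown in 96-well plates and exposed to compound for 48 hours at five concentrations. At the GI50, growth is halved. The concentration for full growth arrest is given as TGI.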

system: MDA-MB-468 breast; experiment: inhibition of tumour cell growth, NCI panel, 48 h

Row | Compound | GI50 | TGI
1 | COC(=O)Nc1nc2ccc(Oc3cccc(NC(=O)Nc4cc(C(F)(F)F)ccc4F)c3)cc2[nH]1 | 7.87 µM | > 23.1 µM
2 | Cc1nn(-c2ccc(Cl)cc2)c2nc3c(nc12)C(=O)C(=O)c1ccccc1-3 | 13.9 µM | > 100 µM
3 | O=c1c(O)c(-c2ccc(O)c(O)c2)oc2cc(O)cc(O)c12 | 6.67 µM | 47.2 µM
4 | O1[As]2O[As]3O[As]1O[As](O2)O3 | 0.216 µM | 1.26 µM
5 | COc1cnc2c(c1)C(=O)c1c-2n(CCCNC2=NCCS2)c(=O)c2cc(Cl)ccc12 | 0.086 µM | 2.18 µM
6 | COc1ccc(C2=CC(c3ccc(OC)cc3Br)N3C=CSC3=N2)cc1 (stereo unspecified) | 2.65 µM | 10 µM
7 | Cc1ccc(C(=O)NC2CCC2)cc1-c1ccc(C(=O)NCC2CC2)cc1 | > 17.2 µM | > 25 µM
8 | COc1ccc(/C=C(\C(=O)NCc2cccnc2)S(=O)(=O)c2ccccc2)cc1OC | 1.57 µM | 5.27 µM
9 | COc1ccccc1CNCCCN1C(=O)c2ccc3c4c(ccc(c24)C1=O)C(=O)N(CCCN)C3=O | 0.333 µM | 1.36 µM
10 | COC(=O)c1cc2ccccc2c2c3c(ccc12)OCO3 | 48.8 µM | > 1000 µM
11 | Cn1cc(-c2csc(-c3cn(CCCN4CCCCC4)c4ccccc34)n2)c2cccnc21 | 1.87 µM | 3.74 µM
12 | Cc1[nH]c(=O)nc(Nc2ccc(Cl)cc2)c1C(=O)N1CCN(CCO)CC1 | 34.8 µM | > 100 µM
13 | Cc1nn(-c2ccc([N+](=O)[O-])cc2)c2ncnc(N/N=C/c3ccccc3O)c12 | 1.09 µM | 3.88 µM
14 | Oc1cccc2ccc(-c3nnc(SCc4ccc(O)c5ncccc45)o3)nc12 | 0.986 µM | 8.49 µM
15 | COC(=O)C1=C(C)NC(C)=C(C(=O)OCC(C)C)C1c1ccccc1[N+](=O)[O-] (stereo unspecified) | 2.83 µM | 9.63 µM
16 | Cc1[nH]c2ccc(F)cc2c1-c1nc2c3cccnc3c3ncccc3c2[nH]1 | 0.201 µM | 0.787 µM
17 | COc1ccc(Cl)c(Nc2nc3ccccc3nc2NS(=O)(=O)c2cccc(NC(=O)C(C)(C)N)c2)c1 | 2.63 µM and 1.62 µM | 14.8 µM and > 10 µM

Row | Compound | GI50 | TGI
18 | c1ccc2[nH]c(-c3cc(-c4ccc5c(c4)OCO5)n[nH]3)nc2c1 | 3.57 µM | 17.2 µM
19 | Nc1c(C(=O)c2cccc(C#CCO)c2)cnn1-c1ccc(F)cc1 | > 25 µM | > 25 µM
20 | CCOC(=O)c1cc2c(n1Cc1cc(OC)c(OC)c(OC)c1)-c1oncc1CCC2 | 0.666 µM | > 83.6 µM
21 | Cc1ccc2c(n1)C(=O)C(Cl)=C(Nc1cccc(C(F)(F)F)c1)C2=O | 1.77 µM | 3.66 µM
22 | CCN(CC)c1ccc(/C=N/NC(=O)c2ccc(NS(C)(=O)=O)cc2)cc1 | 0.358 µM | 3.81 µM
23 | CCN1C(=O)N(CC)C2C1NN=c1s/c(=C\c3ccccn3)c(=O)n12 (stereo unspecified) | 0.523 µM | 5.67 µM
24 | COc1cc(OC)c(C(=O)/C=C/c2cccc(C#N)c2)c(OC)c1 | 0.792 µM | 2.46 µM
25 | N#CSCc1ccc(Cl)c(CSC#N)c1 | 0.129 µM | 32.6 µM
26 | C#CCNCCN1C(=O)c2ccc3c4c(ccc(c24)C1=O)C(=O)N(CCNCC#C)C3=O | 2.25 µM | 10.4 µM
27 | CC(C)CCNCC(O)Cn1c2ccccc2c2ccccc21 (stereo unspecified) | 1.95 µM | 4.35 µM
28 | Cc1cnc(CNC(=O)c2c(=O)c3ccc(N4CCCN(C)CC4)nc3n3c2sc2ccccc23)cn1 | 15.7 µM | 34.8 µM
29 | O=[N+]([O-])c1ccc(N=Nc2ccc(O)c3ccccc23)cc1 | 3.26 µM | 30.6 µM
30 | CC(C)=CCc1c2c(c(O)c3c1O[C@]14C(=C[C@@H]5C[C@H]1C(C)(C)O[C@@]4(C/C=C(/C)C(=O)O)C5=O)C3=O)CC(O)C(C)(C)O2 (stereo partly specified) | 12.1 µM | 27.6 µM
31 | Nc1ncnc2c1c(-c1ccc(Oc3ccccc3)cc1)nn2C[C@@H]1SSC[C@H]1O | 0.349 µM | 2.61 µM
32 | CN(C)c1ccc(C(=NO)c2ccc(N(C)C)cc2)cc1 | 0.716 µM | 4.43 µM
33 | O=C1C(SCCO)=C(SCCO)C(=O)N1c1ccc(-c2ccccc2)cc1 | 0.534 µM | 1.5 µM
